Experimental data: PMC11435625, “In Vitro Hepatic Clearance Evaluations of Per- and Polyfluoroalkyl Substances (PFAS) across Multiple Structural Categories” (Toxics, 2024)

Columns and labels:
[1] = IVIVE: steady-state concentration (Css), generic HTTK model; design: species or system human; settings: for Css: human steady-state concentration, 1 mg/kg/day exposure rate, loss of parent compound only; for Css (mg/L) / Css (uM): Assuming 1 mg/kg/day dose rate, BW 70 kg; for CLhep: QL 1500000 uL/min; for Fub: fub=fup/(B:P), Fub set to 1 if needed; for CLint: scaled to whole liver: HPGL 110 mill cells/g, Vl 1596 g
Outline: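 Human Css estimated by IVIVE: plasma protein binding converted to blood fraction unbound via blood-to-plasma partitioning, and experimental Clint scaled with liver scalars to whole liver clearance. AEDs then derived by reverse dosimetry from Css and PFAS in vitro POD, defined as fifth-percentile AC50.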

[2] = Administered equivalent dose (AED) by reverse dosimetry; design: species or system human; settings: from Css and AC50 POD by reverse dosimetry
Protocol: IVIVE was performed as previously described to calculate human steady-state concentrations (Css). Briefly, experimental plasma protein binding data presented elsewhere were transformed to fraction unbound in blood using blood-to-plasma partitioning values. Experimental Clint values generated here are used in conjunction with relevant liver scalars to scale up to estimate whole liver clearance. […] Once Css values were established, these were used with the PFAS-specific in vitro POD data to calculate the administered equivalent doses (AEDs) using reverse dosimetry. […] The fifth-percentile AC50 value was used to define the in vitro POD. All relevant inputs, scalars, and calculations are provided in Supplementary Information, as indicated in the results.

[3] = system: pooled primary human hepatocyte suspensions; experiment: Hepatic clearance assay (substrate depletion, LC-MS); settings: in µL/min/10^6 cells; for Unadj Clint: unadjusted hepatic intrinsic clearance, Table S4; for Unadj Clint / in vitro CLint exp assay: pooled primary human hepatocyte suspensions; for CLint for HTTK: CLint value carried into HTTK/IVIVE
Outline: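 Substrate depletion at 1 μM PFAS in pooled cryopreserved human hepatocytes (~0.5 × 10^6 viable cells/mL, 50-donor pool), 37 °C with shaking, sampled 0–240 min in triplicate. Quantified by LC-MS in negative ion mode against matrix-matched calibration; media-only or heat-inactivated cells as nonmetabolic-loss controls.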

plasma protein = settings: cited from earlier work; for fup (fraction unbound in plasma): human plasma; for Mean fu: fraction unbound in plasma, input for IVIVE calculations
[4] = system: pooled primary human hepatocyte suspensions; experiment: Bayesian (MCMC, invitroTKstats) analysis of hepatic clearance data; settings: Level-4 Bayesian estimate, posterior median; Clint.1 series (Clint.10 all NA)
Source text: Markov Chain Monte Carlo was employed in a Bayesian analysis to estimate uncertainty of the hepatic clearance point measures as previously described, but with some modifications [10]. Briefly, after organizing PFAS-level data into a single file, the relationship between the relevant measurement process parameters was described in a graphic model in JAGS language [13] interfaced through R. For hepatic clearance data, the model describes the PFAS-specific mass spectrometric response factor between analyte peak ratio (to internal standard) and chemical concentration. […] The assumed prior for whether the chemical degraded abiotically in vitro followed a Bernoulli distribution with a 5% chance of abiotic degradation. Separate biotic and abiotic components for chemical elimination were estimated, each with a slope following an assumed uniform prior distribution bounded between the zero and the -log (limit of quantitation/Ctest). In scenarios where an external calibration without internal standard was used, the response factor was calculated using the analyte peak alone, introducing additional uncertainty due to the inability to normalize for recovery issues. The model was analyzed jointly by JAGS using five Markov chains. Convergence was identified by requiring the five chains to be consistent, as indicated by the potential scale reduction factor [14] being less than 1.1. The analysis was performed using EPA-developed R package invitroTKstats, available upon request.

| Structure (SMILES) | Css [1] | AED [2] | Unadj Clint [3] | fup (fraction unbound in plasma) (plasma protein) | Css (mg/L) [1] | Css (uM) [1] | CLhep [1] | Fub [1] | CLint [1] | Clint.1.Med [4] | CLint for HTTK [3] | in vitro CLint exp assay [3] | Mean fu (plasma protein) |
| --- | --- | --- | --- | --- | --- | --- | --- | --- | --- | --- | --- | --- | --- |
| O=C(O)C(F)(F)C(F)(F)C(F)(F)C(F)(F)C(F)(F)C(F)(F)C(F)(F)C(F)(F)C(F)(F)F [PFDA, Perfluorodecanoic acid] | 173.91 µM | 0.06 mg/kg/day | 0.00 | 0.0027 | – | – | – | – | – | – | – | – | – |
| O=C(O)C(F)(F)C(F)(F)C(F)(F)C(F)(F)C(F)(F)C(F)(F)C(F)(F)C(F)F [9H-PFNA, 9-H-Perfluorononanoic acid] | 601.28 µM | 0.004 mg/kg/day | 0.00 | 0.0009 | – | – | – | – | – | – | – | – | – |
| O=C(O)C(F)(F)C(F)(F)C(F)(F)C(F)(F)C(F)(F)C(F)(F)C(F)(F)C(F)(F)C(F)(F)C(F)F [11H-PFUnDA, 11-H-Perfluoroundecanoic acid] | 294.69 µM | 0.03 mg/kg/day | 0.00 | 0.0015 | – | – | – | – | – | – | – | – | – |
| O=C(O)C(F)(F)C(F)(F)C(F)(F)C(F)(F)C(F)(F)F [PFHxA, Perfluorohexanoic acid] | 113.04 µM | 0.08 mg/kg/day | 1.62 | 0.0068 | – | – | – | – | – | – | – | – | – |
| O=S(=O)([O-])C(F)(F)C(F)(F)C(F)(F)C(F)(F)F.[K+] | – | – | – | – | 52.47 mg/L | 174.92 µM | 0.000 L/h | 0.008364 | 0 µL/min | 0 | 0 | 0 | 0.0046 |
| O=C([O-])C(F)(F)C(F)(F)C(F)(F)C(F)(F)C(F)(F)C(F)(F)C(F)(F)F.[K+] [Potassium perfluorooctanoate (KPFOA)] | – | – | – | – | 134.08 mg/L | 323.88 µM | 0.000 L/h | 0.003273 | 0 µL/min | 0 | 0 | 0 | 0.0018 |
| O=C([O-])C(F)(F)C(F)(F)C(F)(F)C(F)(F)C(F)(F)C(F)(F)C(F)(F)F.[Na+] [Sodium perfluorooctanoate (NaPFOA)] | – | – | – | – | 402.24 mg/L | 971.65 µM | 0.000 L/h | 0.001091 | 0 µL/min | 0 | 0 | 0 | 0.0006 |
| O=C(O)CCC(F)(F)C(F)(F)C(F)(F)C(F)(F)C(F)(F)F | – | – | – | – | 2.11 mg/L | 6.18 µM | 1.318 L/h | 0.01073 | 2078630 µL/min | 19 | 11.84 | 11.84 | 0.0059 |
| O=C(O)C(F)(F)C(F)(F)C(F)(F)C(F)(F)C(F)(F)C(F)(F)C(F)(F)C(F)(F)F [PFNA, Perfluorononanoic acid] | 325.11 µM | 0.05 mg/kg/day | 0.83 | 0.0016 | – | – | – | – | – | – | – | – | – |
| O=S(=O)(O)CCC(F)(F)C(F)(F)C(F)(F)C(F)(F)C(F)(F)C(F)(F)F | – | – | – | – | 5.29 mg/L | 12.36 µM | 0.382 L/h | 0.026 | 245784 µL/min | 0 | 1.4 | 1.4 | 0.0143 |
| O=C(O)C(F)(F)OC(F)(F)C(F)(F)OC(F)(F)C(F)(F)OC(F)(F)F [Perfluoro-3,6,9-trioxadecanoic acid] | – | – | 0.00 | – | 804.48 mg/L | 1952.80 µM | 0.000 L/h | 0.0005455 | 0 µL/min | 0 | 0 | 0 | 0.0003 |
| O=C(O)C(F)(F)C(F)(F)C(F)(F)C(F)(F)C(F)(F)C(F)(F)C(F)(F)C(F)(F)C(F)(F)F [Perfluorodecanoic acid (PFDA)] | – | – | – | – | 89.39 mg/L | 173.91 µM | 0.000 L/h | 0.004909 | 0 µL/min | 0 | 0 | 0 | 0.0027 |
| O=S(=O)(O)C(F)(F)C(F)(F)C(F)(F)C(F)(F)C(F)(F)C(F)(F)C(F)(F)F [PFHpS, Perfluoroheptanesulfonic acid] | 893.98 µM | 0.02 mg/kg/day | 1.23 | 0.0006 | – | – | – | – | – | – | – | – | – |
| O=C(O)C(F)(F)C(F)(F)C(F)(F)C(F)(F)C(F)(F)C(F)(F)F [Perfluoroheptanoic acid (PFHpA)] | – | – | – | – | 603.36 mg/L | 1657.68 µM | 0.000 L/h | 0.0007273 | 0 µL/min | 0 | 0 | 3.12 | 0.0004 |
| O=P(O)(O)CCC(F)(F)C(F)(F)C(F)(F)C(F)(F)C(F)(F)C(F)(F)F [2-(Perfluorohexyl)ethylphosphonic acid] | – | – | 0.71 | – | 19.62 mg/L | 45.85 µM | 0.000 L/h | 0.02236 | 0 µL/min | 0 | 0 | 0 | 0.0123 |
| O=S(=O)(O)C(F)(F)C(F)(F)C(F)(F)C(F)(F)F [Perfluorobutanesulfonic acid (PFBS)] | – | – | – | – | 2.25 mg/L | 7.51 µM | 1.150 L/h | 0.02327 | 833910 µL/min | 0 | 4.75 | 4.75 | 0.0128 |
| O=C(O)C(F)(F)C(F)(F)C(F)(F)C(F)(F)C(F)(F)C(F)(F)C(F)(F)C(F)(F)C(F)(F)C(F)(F)F [Perfluoroundecanoic acid (PFUnDA)] | – | – | – | – | 20.81 mg/L | 36.89 µM | 0.000 L/h | 0.02109 | 0 µL/min | 0 | 0 | 0 | 0.0116 |
| O=C(O)C(F)(F)C(F)(F)C(F)(F)C(F)(F)C(F)(F)C(F)(F)C(F)(F)C(F)(F)C(F)(F)C(F)F | – | – | – | – | 160.90 mg/L | 294.69 µM | 0.000 L/h | 0.002727 | 0 µL/min | 0 | 0 | 0 | 0.0015 |
| O=S(=O)(O)C(F)(F)C(F)(F)C(F)(F)C(F)(F)C(F)(F)C(F)(F)F [PFHxS, Perfluorohexanesulfonic acid] | 670.49 µM | 0.033 mg/kg/day | 1.52 | 0.0009 | – | – | – | – | – | – | – | – | – |
| O=C(O)C(F)(F)C(F)(F)C(F)(F)C(F)(F)C(F)(F)C(F)(F)F [PFHpA, Perfluoroheptanoic acid] | 1657.68 µM | 0.01 mg/kg/day | 3.12 | 0.0004 | – | – | – | – | – | – | – | – | – |
| O=S(=O)(O)CCC(F)(F)C(F)(F)C(F)(F)C(F)(F)F | – | – | – | – | 6.27 mg/L | 19.12 µM | 0.408 L/h | 0.009091 | 751397 µL/min | 0 | 4.28 | 4.28 | 0.005 |
| O=S(=O)(O)CCC(F)(F)C(F)(F)C(F)(F)C(F)(F)C(F)(F)C(F)(F)C(F)(F)C(F)(F)F | – | – | – | – | 1.81 mg/L | 3.42 µM | 1.146 L/h | 0.072 | 268607 µL/min | 0 | 1.53 | 1.53 | 0.0396 |
| O=C(O)C(F)(F)C(F)(F)C(F)(F)C(F)(F)C(F)(F)C(F)(F)C(F)(F)C(F)F [9-H-Perfluorononanoic acid (9H-PFNA)] | – | – | – | – | 268.16 mg/L | 601.28 µM | 0.000 L/h | 0.001636 | 0 µL/min | 0 | 0 | 0 | 0.0009 |
